# Measurements taken from patent US20080269237A1, “CARBAMIC ACID COMPOUNDS COMPRISING A PIPERAZINE LINKAGE AS HDAC INHIBITORS” (TOPOTARGET UK LIMITED, priority 2002, published 2008).
# Tests used:
# [1] = system: JURKAT (human T-cell line); assay: Secondary assay: cell proliferation inhibition WST-1, Jurkat; type: cell-based; details: Homo sapiens, 48 h, read-out: Cell Proliferation Inhibition WST-1 (IC50 unless otherwise specified) Jurkat
# [2] = target: mouse HDAC2 (Mus musculus, UniProt P70288); assay: biochemical
# Description: Briefly, this assay relies on the release of radioactive acetate from a radioactively labelled histone fragment by the action of HDAC enzyme. Test compounds, which inhibit HDAC, reduce the yield of radioactive acetate. Signal (e.g., scintillation counts) measured in the presence and absence of a test compound provide an indication of that compound's ability to inhibit HDAC activity. Decreased activity indicates increased inhibition by the test compound. […]
# After purification of the radiolabelled histone fragment, it was incubated with a source of HDAC (e.g., an extract of HeLa cells (a rich source of HDAC), recombinantly produced HDAC1 or HDAC2) and any released acetate was extracted into an organic phase and quantitatively determined using scintillation counting. By including a test compound with the source of HDAC, that compound's ability to inhibit the HDAC was determined. […]
# A source of HDAC (e.g., 2 μL of crude HeLa extract, 5 μL of HDAC1 or HDAC2; in elution buffer, as above) was incubated with 3 μL of radioactively labelled peptide along with appropriate dilutions of candidate compounds (1.5 μL) in a total volume of 150 μL of buffer (20 mM Tris pH 7.4, 10% glycerol). […] Radioactivity was measured using a Tri-Carb 2100TR Liquid Scintillation Analyzer (Packard). […]
# [3] = system: HeLa cells; assay: Secondary assay: cell proliferation inhibition WST-1, HeLa; type: cell-based; details: Homo sapiens, 48 h, read-out: Cell Proliferation Inhibition WST-1 (IC50 unless otherwise specified) HeLa
# Description: (§1) Compounds with HDAC inhibition activity, as determined using the primary assay, were subsequently evaluated using secondary cell-based assays. The following cell lines were used:
# (§2) HeLa—Human cervical adenocarcinoma cell line (ATCC ref. No. CCL-2). K11—HPV E7 transformed human keratinocyte line provided by Pidder Jansen-Duerr, Institut für Biomedizinische Altemsforschung, Innsbruck, Austria. NHEK-Ad—Primary human adult keratinocyte line (Cambrex Corp., East Rutherford, N.J., USA).
# (§3) Cells were plated in 96-well plates at 3-10×10^3 cells/well in 100 μL of culture medium. The following day, different concentrations of candidate compounds were added and the cells incubated at 37° C. for 48 h. Subsequently, 10 μL/well of WST-1 reagent was added and the cells reincubated for 1 hour. After the incubation time, absorbance was measured.
# (§4) WST-1 is a tetrazolium salt which is cleaved to formazan dye by cellular enzymes. An expansion in the number of viable cells results in an increase in the overall activity of mitochondrial dehydrogenases in the sample. This augmentation in the enzyme activity leads to an increase in the amount of formazan dye formed, which directly correlates to the number of metabolically active cells in the culture. The formazan dye produced is quantified by a scanning multiwell spectrophotometer by measuring the absorbance of the dye solution at 450 nm wavelength (reference wavelength 690 nm).
# (§5) Percent activity (% activity) in reducing the number of viable cells was calculated for each test compound as:
# (§6) % activity={(S^C−B)/(S^o−B)}×100
# (§7) IC50 values were calculated using the software package Prism 3.0 (GraphPad Software Inc., San Diego, Calif.), setting top value at 100 and bottom value at 0.
# [4] = system: K11 (HPV E7 transformed human keratinocyte line); assay: Secondary assay: cell proliferation inhibition WST-1, K11; type: cell-based; details: Homo sapiens, Keratinocyte, 48 h, read-out: Cell Proliferation Inhibition WST-1 (IC50 unless otherwise specified) K11
# Description: as §1, §2, §3, §4, §5, §6, §7
# [5] = system: NHEK-Ad (primary human adult keratinocyte line); assay: Secondary assay: cell proliferation inhibition WST-1, NHEK-Ad; type: cell-based; details: Homo sapiens, Keratinocyte, 48 h, read-out: Cell Proliferation Inhibition WST-1 (IC50 unless otherwise specified) NHEK-AD
# Description: as §1, §2, §3
# WST-1 is a tetrazolium salt which is cleaved to formazan dye by cellular enzymes. […] The formazan dye produced is quantified by a scanning multiwell spectrophotometer by measuring the absorbance of the dye solution at 450 nm wavelength (reference wavelength 690 nm).
# Percent activity (% activity) in reducing the number of viable cells was calculated for each test compound as: […]
# as §7
# Sequence of mouse HDAC2 (P70288 whole entry, the tested form may be a part): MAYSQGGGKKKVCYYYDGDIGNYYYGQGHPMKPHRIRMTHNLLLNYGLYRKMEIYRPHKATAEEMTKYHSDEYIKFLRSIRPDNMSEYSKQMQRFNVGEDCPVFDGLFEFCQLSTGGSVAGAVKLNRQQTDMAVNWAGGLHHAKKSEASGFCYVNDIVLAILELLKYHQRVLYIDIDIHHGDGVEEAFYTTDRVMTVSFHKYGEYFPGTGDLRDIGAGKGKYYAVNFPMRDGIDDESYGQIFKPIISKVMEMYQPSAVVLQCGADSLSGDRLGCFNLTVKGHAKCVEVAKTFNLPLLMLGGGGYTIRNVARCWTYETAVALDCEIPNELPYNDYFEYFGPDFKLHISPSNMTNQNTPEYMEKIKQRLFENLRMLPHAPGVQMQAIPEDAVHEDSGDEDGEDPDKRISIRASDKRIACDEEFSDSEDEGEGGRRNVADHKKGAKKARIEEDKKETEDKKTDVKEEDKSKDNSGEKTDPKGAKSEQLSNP
compound,measurement,setting,value
"CC(/C=C/C(=O)NO)=C\[C@@H](C)C(=O)c1ccc(N(C)C)cc1 [TSA, Trichostatin A, reference compound]",IC50,[1],42 nM
same,IC50,[2],17 nM
same,IC50,[3],350 nM
same,IC50,[4],380 nM
same,IC50,[5],200 nM
